Data published in patent US8741897B2, “Glucocorticoid mimetics, methods of making them, pharmaceutical compositions and uses thereof” (Boehringer Ingelheim Pharmaceuticals Inc., priority 2003, dated 2014).

Legend:
[1] = tested on: glucocorticoid receptor function; assay: one or more of the above assays (GR binding and glucocorticoid receptor cell assays: aromatase, IL-6, TAT, MMTV-Luc, IL-8, ICAM-Luc); type: cell-based; settings: assay not specified per compound
[2] = target: T1, human glucocorticoid receptor (GR) complex (Homo sapiens, UniProt P04150); assay: Glucocorticoid receptor competitive binding assay (fluorescence polarization, TAMRA-labeled dexamethasone probe); settings: compounds of Formula (IA)
T1 construct: made in house; host or cells: insect expression system (baculovirus lysate)
T1 sequence (P04150 1-777): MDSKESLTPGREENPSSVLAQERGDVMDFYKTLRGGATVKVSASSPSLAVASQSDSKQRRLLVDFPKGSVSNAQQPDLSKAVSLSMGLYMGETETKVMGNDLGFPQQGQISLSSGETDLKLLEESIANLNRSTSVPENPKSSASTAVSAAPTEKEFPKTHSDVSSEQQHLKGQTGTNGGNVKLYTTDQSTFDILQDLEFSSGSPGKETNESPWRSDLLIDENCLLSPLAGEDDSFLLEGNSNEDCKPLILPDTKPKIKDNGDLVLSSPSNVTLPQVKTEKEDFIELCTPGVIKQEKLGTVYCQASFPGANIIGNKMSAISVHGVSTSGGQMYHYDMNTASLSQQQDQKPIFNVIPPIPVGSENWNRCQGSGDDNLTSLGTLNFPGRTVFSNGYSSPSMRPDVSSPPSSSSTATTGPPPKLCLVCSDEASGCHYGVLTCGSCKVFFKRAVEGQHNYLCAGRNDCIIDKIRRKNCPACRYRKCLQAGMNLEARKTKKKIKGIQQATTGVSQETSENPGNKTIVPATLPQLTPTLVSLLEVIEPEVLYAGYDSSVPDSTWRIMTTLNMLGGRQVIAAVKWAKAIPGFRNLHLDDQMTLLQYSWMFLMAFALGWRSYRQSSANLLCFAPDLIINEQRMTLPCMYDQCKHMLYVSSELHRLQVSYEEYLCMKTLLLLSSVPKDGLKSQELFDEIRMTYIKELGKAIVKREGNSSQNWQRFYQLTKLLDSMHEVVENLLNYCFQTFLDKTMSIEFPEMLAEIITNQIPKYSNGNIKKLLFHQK
Procedure, shortened: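 Fluorescence-polarization competition against 15 nM TAMRA-dexamethasone (stock added to the mix) for human GR complex from baculovirus lysate diluted 1:170. Buffer: 10 mM TES, 50 mM KCl, 20 mM Na2MoO4, 1.5 mM EDTA, 0.04% CHAPS, 10% glycerol, 1 mM DTT, pH 7.4. IC50 from 4-parameter logistic fit.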

| Structure (SMILES) | activity in the GR binding assay [2] | activity as agonists of the glucocorticoid receptor function in one or more of the above assays [1] |
| --- | --- | --- |
| Cc1ccc(F)cc1C(C)(C)CC(O)(Cc1cc2cc(Cl)ncc2[nH]1)C(F)(F)F (stereo not drawn) [2-(5-Chloro-1H-pyrrolo[2,3-c]pyridin-2-ylmethyl)-1,1,1-trifluoro-4-(5-fluoro-2-methylphenyl)-4-methylpentan-2-ol] | potent activity | potent agonists |
| COc1ccc(F)cc1C(C)(C)CC(O)(Cc1cc2ccc(C#N)cc2[nH]1)C(F)(F)F (stereo not drawn) [2-[4-(5-Fluoro-2-methoxyphenyl)-2-hydroxy-4-methyl-2-trifluoromethylpentyl]-1H-indole-6-carbonitrile] | potent activity | potent agonists |
| COc1ccc(F)cc1C(C)(C)CC(O)(Cc1cc2nnccc2[nH]1)C(F)(F)F (stereo not drawn) [1,1,1-Trifluoro-4-(5-fluoro-2-methoxyphenyl)-4-methyl-2-(5H-pyrrolo[3,2-c]pyridazin-6-ylmethyl)pentan-2-ol] | potent activity | potent agonists |
| COc1ccc(F)cc1C(C)(C)CC(O)(Cc1cc2cc(Cl)nc(Cl)c2[nH]1)C(F)(F)F (stereo not drawn) [2-(5,7-Dichloro-1H-pyrrolo[2,3-c]pyridin-2-ylmethyl)-1,1,1-trifluoro-4-(5-fluoro-2-methoxyphenyl)-4-methylpentan-2-ol] | potent activity | potent agonists |
| Cc1ccc(C(C)(C)CC(O)(Cc2cc3ccccc3[nH]2)C(F)(F)F)cc1F (stereo not drawn) [1,1,1-Trifluoro-4-(3-fluoro-4-methylphenyl)-2-(1H-indol-2-ylmethyl)-4-methylpentan-2-ol] | potent activity | potent agonists |
| COc1cc(F)ccc1C(C)(C)CC(O)(Cc1cc2c(C)ccc(F)c2[nH]1)C(F)(F)F (stereo not drawn) [1,1,1-Trifluoro-4-(4-fluoro-2-methoxyphenyl)-2-(7-fluoro-4-methyl-1H-indol-2-ylmethyl)-4-methylpentan-2-ol] | potent activity | potent agonists |
| COc1ccc(C(C)C)cc1C(C)(C)CC(O)(Cc1[nH]c2ccccc2c1C#N)C(F)(F)F (stereo not drawn) [2-[2-Hydroxy-4-(5-isopropyl-2-methoxyphenyl)-4-methyl-2-trifluoromethylpentyl]-1H-indole-3-carbonitrile] | potent activity | potent agonists |
| Cc1ccc(F)cc1C(C)(C)CC(O)(Cc1cc2ccnc(F)c2[nH]1)C(F)(F)F (stereo not drawn) [1,1,1-Trifluoro-4-(5-fluoro-2-methylphenyl)-2-(7-fluoro-1H-pyrrolo[2,3-c]pyridin-2-ylmethyl)-4-methylpentan-2-ol] | potent activity | potent agonists |
| COc1ccc(C)cc1C(C)(C)CC(O)(Cc1ccnc2ccccc12)C(F)(F)F (stereo not drawn) [1,1,1-Trifluoro-4-(2-methoxy-5-methylphenyl)-4-methyl-2-quinolin-4-ylmethylpentan-2-ol] | potent activity | potent agonists |
| CC(C)c1ccc(O)c(C(C)(C)CC(O)(Cc2[nH]c3ccccc3c2C#N)C(F)(F)F)c1 (stereo not drawn) [2-[2-Hydroxy-4-(2-hydroxy-5-isopropylphenyl)-4-methyl-2-trifluoromethylpentyl]-1H-indole-3-carbonitrile] | potent activity | potent agonists |
| CC(C)(CC(O)(Cc1cc2ccccc2[nH]1)C(F)(F)F)c1cccc(F)c1 (stereo not drawn) [1,1,1-Trifluoro-4-(3-fluorophenyl)-2-(1H-indol-2-ylmethyl)-4-methylpentan-2-ol] | potent activity | potent agonists |
| Cc1ccccc1C(C)(C)CC(O)(Cc1ccnc2ccccc12)C(F)(F)F (stereo not drawn) [1,1,1-Trifluoro-4-methyl-2-quinolin-4-ylmethyl-4-o-tolylpentan-2-ol] | potent activity | potent agonists |
| CC(C)(CC(O)(Cc1cc2ccccc2[nH]1)C(F)(F)F)c1ccccc1F (stereo not drawn) [1,1,1-Trifluoro-4-(2-fluorophenyl)-2-(1H-indol-2-ylmethyl)-4-methylpentan-2-ol] | potent activity | potent agonists |
| Cc1cc(CC(O)(CC(C)(C)c2ccc(F)cc2)C(F)(F)F)c2ccccc2n1 (stereo not drawn) [1,1,1-Trifluoro-4-(4-fluorophenyl)-4-methyl-2-(2-methylquinolin-4-ylmethyl)pentan-2-ol] | potent activity | potent agonists |
| CC(C)(CC(O)(Cc1cc2cnccc2[nH]1)C(F)(F)F)c1cc(F)cc2c1OCC2 (stereo not drawn) [1,1,1-Trifluoro-4-(5-fluoro-2,3-dihydrobenzofuran-7-yl)-4-methyl-2-(1H pyrrolo[3,2-c]pyridin-2-ylmethyl)pentan-2-ol] | potent activity | potent agonists |
| COc1ccc(F)cc1C(C)(C)CC(O)(Cc1[nH]c2ccncc2c1C)C(F)(F)F (stereo not drawn) [1,1,1-Trifluoro-4-(5-fluoro-2-methoxyphenyl)-4-methyl-2-(3-methyl-1H pyrrolo[3,2-c]pyridin-2-ylmethyl)pentan-2-ol] | potent activity | potent agonists |

Continued, in another order:

| activity in the GR binding assay [2] | Structure (SMILES) | activity as agonists of the glucocorticoid receptor function in one or more of the above assays [1] |
| --- | --- | --- |
| potent activity | Cc1cc(CC(O)(CC(C)(C)c2cc(F)ccc2O)C(F)(F)F)c2ccccc2n1 (stereo not drawn) [4-Fluoro-2-[4,4,4-trifluoro-3-hydroxy-1,1-dimethyl-3-(2-methylquinolin-4-ylmethyl)butyl]phenol] | potent agonists |
| potent activity | Cc1cc2[nH]c(CC(O)(CC(C)(C)c3cc(Cl)cc4c3OCC4)C(F)(F)F)cc2cn1 (stereo not drawn) [4-(5-Chloro-2,3-dihydrobenzofuran-7-yl)-1,1,1-trifluoro-4-methyl-2-(6-methyl-1H-pyrrolo[3,2-c]pyridin-2-ylmethyl)pentan-2-ol] | potent agonists |
| potent activity | COC(=O)CCCNC(=O)c1ccc2[nH]c(CC(O)(CC(C)(C)c3cc(F)ccc3OC)C(F)(F)F)cc2c1 (stereo not drawn) [4-({2-[4-(5-Fluoro-2-methoxyphenyl)-2-hydroxy-4-methyl-2-trifluoromethylpentyl]-1H-indole-5-carbonyl}amino)butyric acid methyl ester] | potent agonists |
| potent activity | COc1ccc(C(C)(C)C)cc1C(C)(C)CC(O)(Cc1[nH]c2ccccc2c1C#N)C(F)(F)F (stereo not drawn) [2-[4-(5-tert-Butyl-2-methoxyphenyl)-2-hydroxy-4-methyl-2-trifluoromethylpentyl]-1H-indole-3-carbonitrile] | potent agonists |
| potent activity | CC(C)(CC(O)(Cc1ccnc2ccccc12)C(F)(F)F)c1cccc(O)c1 (stereo not drawn) [3-(4,4,4-Trifluoro-3-hydroxy-1,1-dimethyl-3-quinolin-4-ylmethylbutyl)phenol] | potent agonists |
| potent activity | COC(=O)CNC(=O)c1ccc2[nH]c(CC(O)(CC(C)(C)c3cc(F)ccc3OC)C(F)(F)F)cc2c1 (stereo not drawn) [({2-[4-(5-Fluoro-2-methoxyphenyl)-2-hydroxy-4-methyl-2-trifluoromethylpentyl]-1H-indole-5-carbonyl}amino)acetic acid methyl ester] | potent agonists |
| potent activity | Cc1ccc(C)c(C(C)(C)CC(O)(Cc2cc3ccccc3[nH]2)C(F)(F)F)c1 (stereo not drawn) [4-(2,5-Dimethylphenyl)-1,1,1-trifluoro-2-(1H-indol-2-ylmethyl)-4-methylpentan-2-ol] | potent agonists |
| potent activity | COc1ccc(F)cc1C(C)(C)CC(O)(Cc1cc2cc(C(=O)N3CCCC3)ccc2[nH]1)C(F)(F)F (stereo not drawn) [{2-[4-(5-Fluoro-2-methoxyphenyl)-2-hydroxy-4-methyl-2-trifluoromethylpentyl]-1H-indol-5-yl}pyrrolidin-1-ylmethanone] | potent agonists |
